{"source": "paper PMC6812009", "about": "“Covalent Aurora A regulation by the metabolic integrator coenzyme A” (Redox Biology, 2019)", "key": {"[1]": {"tested_on": "FLAG-tagged Aurora A in HEK293/Pank1β cells", "experiment": "Aurora A Thr 288 phosphorylation and dimerization in cells treated with oxidising agents (immunoblot)", "format": "cell-based, human", "conditions": "30 min treatment; for Formation of Aurora A dimers in cells: non-reducing conditions; for Aurora A phosphorylation at Thr 288 in cells: samples separated in the presence of DTT"}, "mouse oocytes": {"tested_on": "mouse oocytes", "experiment": "Microinjection of mouse oocytes, spindle formation and chromosome alignment", "format": "cell-based", "conditions": "injected with 3 mM compound, 17 h after GV release", "description": "Mouse oocytes arrested at the GV stage were injected with different concentrations of CoA (0.15–5 mM). Since the commercial preparation of CoA used for microinjection contained 3 mol of lithium ions per mole of CoA, control oocytes were injected with an equivalent amount of LiCl. In a separate study, oocytes were injected with 3 mM CoA, ADP, AMP, 3′-5′-ADP and pantetheine. To examine the effect of injected compounds on spindle formation, oocytes were fixed 17 h after GV release and stained for alpha-tubulin (green) and DNA (blue)."}, "[2]": {"target": "T1, FLAG-tagged WT Aurora A (human), O14965", "T1 chain": "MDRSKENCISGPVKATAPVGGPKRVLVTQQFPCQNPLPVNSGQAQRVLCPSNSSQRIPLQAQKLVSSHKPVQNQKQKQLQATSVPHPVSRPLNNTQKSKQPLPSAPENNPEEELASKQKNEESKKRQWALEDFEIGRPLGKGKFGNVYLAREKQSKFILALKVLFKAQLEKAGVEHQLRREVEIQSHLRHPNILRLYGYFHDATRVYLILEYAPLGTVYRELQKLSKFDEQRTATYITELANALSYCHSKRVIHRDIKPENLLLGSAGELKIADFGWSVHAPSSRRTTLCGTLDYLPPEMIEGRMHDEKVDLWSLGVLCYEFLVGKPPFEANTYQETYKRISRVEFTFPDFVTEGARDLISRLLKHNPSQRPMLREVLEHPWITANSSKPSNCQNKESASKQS", "experiment": "non-reducing SDS-PAGE and immunoblot of an anti-FLAG immunoprecipitate; FLAG-Aurora A immunoprecipitated from HEK293/Pank1β cells treated 30 min with oxidising agents (250 μM H2O2, 500 μM diamide, 50 μM menadione, 10 μM phenylarsine oxide, 1 μM rotenone); SDS-PAGE under reducing and non-reducing conditions; blots with anti-FLAG and anti-pT288; dimers seen under non-reducing conditions", "conditions": "remark: other sources report otherwise"}, "[3]": {"target": "T2, purified Aurora A (human), O14965", "T2 chain": "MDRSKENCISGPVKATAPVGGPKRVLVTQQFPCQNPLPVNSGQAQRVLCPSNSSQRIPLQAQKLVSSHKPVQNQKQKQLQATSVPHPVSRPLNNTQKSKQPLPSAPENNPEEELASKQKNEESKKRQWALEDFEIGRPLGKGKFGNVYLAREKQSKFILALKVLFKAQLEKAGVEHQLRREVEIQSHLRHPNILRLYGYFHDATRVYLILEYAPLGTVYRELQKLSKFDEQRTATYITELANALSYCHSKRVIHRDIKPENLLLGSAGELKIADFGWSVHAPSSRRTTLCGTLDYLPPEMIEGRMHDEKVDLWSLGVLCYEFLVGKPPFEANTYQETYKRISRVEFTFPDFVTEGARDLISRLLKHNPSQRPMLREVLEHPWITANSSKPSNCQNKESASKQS", "experiment": "non-reducing SDS-PAGE; purified Aurora A briefly exposed to peroxide; reducing compared with non-reducing SDS-PAGE; dimer sensitive to DTT", "conditions": "remark: other sources report otherwise"}}, "data": [{"molecule": "OO", "note": "[hydrogen peroxide]", "values": [{"measurement": "Formation of Aurora A dimers in cells", "setting": "[1]", "result": "clearly observed"}, {"measurement": "Aurora A phosphorylation at Thr 288 in cells", "setting": "[1]", "result": "promoted an increase"}]}, {"molecule": "CC1=CC(=O)c2ccccc2C1=O", "note": "[menadione]", "values": [{"measurement": "Formation of Aurora A dimers in cells", "setting": "[1]", "result": "clearly observed"}, {"measurement": "Aurora A phosphorylation at Thr 288 in cells", "setting": "[1]", "result": "promoted an increase"}]}, {"molecule": "CC(C)(CO)[C@@H](O)C(=O)NCCC(=O)NCCS", "note": "[pantetheine]", "values": [{"measurement": "Disruption of bipolar spindle formation and chromosome alignment", "setting": "mouse oocytes", "result": "not"}]}, {"molecule": "FLAG-tagged WT Aurora A, O14965 1-403 (enzyme, here or on the partner: phosphothreonine at 288 (detected with anti-pT288 antibody after oxidising agents); phosphothreonine at 288 (detected with anti-pT288 antibody after oxidising agents)) MDRSKENCISGPVKATAPVGGPKRVLVTQQFPCQNPLPVNSGQAQRVLCPSNSSQRIPLQAQKLVSSHKPVQNQKQKQLQATSVPHPVSRPLNNTQKSKQPLPSAPENNPEEELASKQKNEESKKRQWALEDFEIGRPLGKGKFGNVYLAREKQSKFILALKVLFKAQLEKAGVEHQLRREVEIQSHLRHPNILRLYGYFHDATRVYLILEYAPLGTVYRELQKLSKFDEQRTATYITELANALSYCHSKRVIHRDIKPENLLLGSAGELKIADFGWSVHAPSSRRTTLCGTLDYLPPEMIEGRMHDEKVDLWSLGVLCYEFLVGKPPFEANTYQETYKRISRVEFTFPDFVTEGARDLISRLLKHNPSQRPMLREVLEHPWITANSSKPSNCQNKESASKQS", "values": [{"measurement": "stoichiometry N", "setting": "[2]", "result": 2}]}, {"molecule": "purified Aurora A, O14965 1-403 (enzyme) MDRSKENCISGPVKATAPVGGPKRVLVTQQFPCQNPLPVNSGQAQRVLCPSNSSQRIPLQAQKLVSSHKPVQNQKQKQLQATSVPHPVSRPLNNTQKSKQPLPSAPENNPEEELASKQKNEESKKRQWALEDFEIGRPLGKGKFGNVYLAREKQSKFILALKVLFKAQLEKAGVEHQLRREVEIQSHLRHPNILRLYGYFHDATRVYLILEYAPLGTVYRELQKLSKFDEQRTATYITELANALSYCHSKRVIHRDIKPENLLLGSAGELKIADFGWSVHAPSSRRTTLCGTLDYLPPEMIEGRMHDEKVDLWSLGVLCYEFLVGKPPFEANTYQETYKRISRVEFTFPDFVTEGARDLISRLLKHNPSQRPMLREVLEHPWITANSSKPSNCQNKESASKQS", "values": [{"measurement": "stoichiometry N", "setting": "[3]", "result": 2}]}]}
